Patent US20180208605A1, “Substituted Aza Compounds as IRAK-4 Inhibitors” (AURIGENE DISCOVERY TECHNOLOGIES LIMITED, priority 2015, published 2018)
Structures can show the parent of a compound that is named as a salt.

Molecular target: T1, recombinant IRAK-4 kinase (Homo sapiens, UniProt Q9NWZ3)
T1 construct: purchased Millipore, USA
T1 sequence (Q9NWZ3 1-460): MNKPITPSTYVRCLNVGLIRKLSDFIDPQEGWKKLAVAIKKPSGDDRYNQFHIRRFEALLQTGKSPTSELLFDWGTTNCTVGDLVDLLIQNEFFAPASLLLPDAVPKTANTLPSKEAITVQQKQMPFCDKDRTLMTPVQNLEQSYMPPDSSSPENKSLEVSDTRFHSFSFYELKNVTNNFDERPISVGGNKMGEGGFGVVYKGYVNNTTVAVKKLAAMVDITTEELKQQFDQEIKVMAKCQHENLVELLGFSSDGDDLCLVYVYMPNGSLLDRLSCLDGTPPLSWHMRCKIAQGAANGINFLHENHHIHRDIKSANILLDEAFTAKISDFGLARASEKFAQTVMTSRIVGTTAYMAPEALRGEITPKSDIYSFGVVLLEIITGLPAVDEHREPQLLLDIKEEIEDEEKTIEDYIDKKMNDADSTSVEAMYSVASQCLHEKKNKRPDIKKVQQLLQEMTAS
Assay: IRAK-4 Biochemical Assay (TR-FRET, percent inhibition)
Conditions: TR-FRET, 20 μM ATP, 100 nM Biotin Histone H3; for inhibition at 0.1 µM: read-out: % inhibition of IRAK-4 @0.1 μM, compound at 0.1 μM; for inhibition at 1 µM: read-out: % inhibition of IRAK-4 @ 1 μM, compound at 1 μM
Method: Compounds were tested for their potential to inhibit IRAK-4 enzyme in a TR-FRET assay using recombinant IRAK-4 kinase from Millipore, USA. The assay buffer was 50 mM Tris-HCl pH 7.5, 20 mM MgCl2, 1 mM EGTA, 2 mM DTT, 3 mM MnCl2 and 0.01% Tween 20.5 ng of IRAK-4 kinase was used for the assay. After pre-incubation of enzyme with test compound for 30 minutes at room temperature, a substrate mixture containing 100 nM Biotin Histone H3 (Millipore, USA) and 20 μM ATP (Sigma, USA) was added and the reaction was incubated for 30 min. Post incubation, the reaction was stopped by the addition of stop mix containing 40 mM EDTA, 1 nM of Europium-Anti-Phospho-Histone H3 (Ser10) antibody (Perkin Elmer, USA) and 20 nM SureLight Allophycocyanin-Streptavidin (Perkin Elmer, USA). The fluorescence emission at 615 nm and 665 nm were measured at an excitation of 340 nm and the percent inhibition was estimated from the ratio of the fluorescence intensities [(F665/F615)×10000].

| SMILES | inhibition at 0.1 µM | inhibition at 1 µM |
| --- | --- | --- |
| Cc1cc(-c2nc(C(=O)Nc3cc4oc(N5CCOCC5)nc4nc3N3CCCC(O)(CO)C3)co2)ccn1 (stereo not shown) [Example 15, N-(5-(3-hydroxy-3-(hydroxymethyl)piperidin-1-yl)-2-morpholinooxazolo[4,5-b]pyridin-6-yl)-2-(2-methylpyridin-4-yl)oxazole-4-carboxamide hydrochloride] | 96% | 100% |
| Cc1cc(-c2ncc(C(=O)Nc3cc4sc(N5CCOCC5)nc4nc3N3CCC(O)(CO)CC3)o2)ccn1 [Example 4, N-(5-(4-hydroxy-4-(hydroxymethyl)piperidin-1-yl)-2-morpholinothiazolo[4,5-b]pyridin-6-yl)-2-(2-methylpyridin-4-yl)oxazole-5-carboxamide hydrochloride] | 99% | 99% |
| Cc1cc(-c2cccc(C(=O)Nc3cc4sc(N5CCOCC5)nc4nc3N3CCC[C@@H](O)C3)n2)ccn1 [Example 41, (R)-N-(5-(3-hydroxypiperidin-1-yl)-2-morpholinothiazolo[4,5-b]pyridin-6-yl)-2′-methyl-[2,4′-bipyridine]-6-carboxamide] | 92% | 98% |
| Cc1cc(-c2nc(C(=O)Nc3cc4oc(N5CCOCC5)nc4nc3N3CC[C@@H](OCC4CC4)C3)co2)ccn1 [Example 95, (R)-N-(5-(3-(cyclopropylmethoxy)pyrrolidin-1-yl)-2-morpholinooxazolo[4,5-b]pyridin-6-yl)-2-(2-methylpyridin-4-yl)oxazole-4-carboxamide] | 80% | 97% |
| Cc1cc(-c2nc(C(=O)Nc3cc4oc(N5CCOCC5)nc4nc3N3CC[C@@H](OC(=O)CN)C3)co2)ccn1 [Example 97, (R)-1-(6-(2-(2-methylpyridin-4-yl)oxazole-4-carboxamido)-2-morpholinooxazolo[4,5-b]pyridin-5-yl)pyrrolidin-3-yl glycinate] | 87% | 99% |
| NCC(=O)O[C@H]1CCN(c2cncc(C(=O)Nc3cc4sc(N5CCOCC5)nc4nc3N3CCCCC3)n2)C1 [Example 65, (S)-1-(6-((2-morpholino-5-(piperidin-1-yl)thiazolo[4,5-b]pyridin-6-yl)carbamoyl)pyrazin-2-yl)pyrrolidin-3-yl glycinate] | 92% | 97% |

Now from value to molecule:

| inhibition at 0.1 µM | inhibition at 1 µM | SMILES |
| --- | --- | --- |
| 98% | 99% | O=C(Nc1cc2sc(N3CCOCC3)nc2nc1N1CCCCC1)c1cccc(N2CCC[C@H](O)C2)n1 [Example 29, (S)-6-(3-hydroxypiperidin-1-yl)-N-(2-morpholino-5-(piperidin-1-yl)thiazolo[4,5-b]pyridin-6-yl)picolinamide] |
| 94% | 97% | N[C@H]1CCCCC1Nc1ccn2ncc(C(=O)Nc3cc4sc(N5CCOCC5)nc4nc3C3CC3)c2n1 (stereo partly shown) [Example 98, 2,2,2-trifluoroacetate] |
| 94% | 99% | NCC(=O)O[C@H]1CCN(c2cccc(C(=O)Nc3cc4sc(N5CCOCC5)nc4nc3N3CCCCC3)n2)C1 [Example 36, (S)-1-(6-((2-morpholino-5-(piperidin-1-yl)thiazolo[4,5-b]pyridin-6-yl)carbamoyl)pyridin-2-yl)pyrrolidin-3-ylglycinate 2,2,2-trifluoroacetate] |
| 75% | 95% | O=C(Nc1cc2sc(N3CCOCC3)nc2nc1N1CCCCC1)c1cccc(NCC2CCOCC2)n1 [Example 37, N-(2-morpholino-5-(piperidin-1-yl)thiazolo[4,5-b]pyridin-6-yl)-6-(((tetrahydro-2H-pyran-4-yl)methyl)amino)picolinamide] |
| 90% | 95% | NCC(=O)OC1CCN(c2cccc(C(=O)Nc3cc4sc(N5CCOCC5)nc4nc3N3CCCCC3)n2)CC1 [Example 66, 1-(6-((2-morpholino-5-(piperidin-1-yl)thiazolo[4,5-b]pyridin-6-yl)carbamoyl)pyridin-2-yl)piperidin-4-yl glycinate] |
